pIC50, pKi: −log10 of the molar value. Where only a bound is given, the exact number is not on record here.

The target of one assay is T1, human CRFR1 (Homo sapiens, UniProt P34998).
T1 sequence (P34998 24-415): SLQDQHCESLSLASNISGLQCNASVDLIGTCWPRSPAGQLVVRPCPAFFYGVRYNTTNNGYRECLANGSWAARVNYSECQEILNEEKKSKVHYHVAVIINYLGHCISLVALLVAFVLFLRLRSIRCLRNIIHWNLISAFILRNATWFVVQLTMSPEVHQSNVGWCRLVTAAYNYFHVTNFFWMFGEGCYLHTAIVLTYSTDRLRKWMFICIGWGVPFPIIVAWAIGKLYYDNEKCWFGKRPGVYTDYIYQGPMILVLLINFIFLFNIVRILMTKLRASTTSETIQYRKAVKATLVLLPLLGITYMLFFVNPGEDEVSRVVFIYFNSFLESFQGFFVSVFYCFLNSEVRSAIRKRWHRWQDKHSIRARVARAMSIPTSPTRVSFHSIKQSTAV
Type of assay: binding.
Settings: not given
Compound `CCN(CC)c1nc(C)nc2c1sc(=S)n2-c1ccc(OC)cc1OC` [5b, 7-(Diethylamino)-3-(2,4-dimethoxyphenyl)-5-methylthiazolo[4,5-d]pyrimidine-2(3H)-thione] showed a negative-log Ki (pKi) of 7.07.

Turning to `CCCCN(CCCC)c1nc(C)nc2c1sc(=S)n2-c1ccc(OC)cc1OC` [5d, 7-(Dibutylamino)-3-(2,4-dimethoxyphenyl)-5-methylthiazolo[4,5-d]pyrimidine-2(3H)-thione], the negative logarithm of the Ki (pKi) is 7.04.

For `CCCCN(CC)c1nc(C)nc2c1sc(=S)n2-c1ccc(OC)cc1OC` [5e, 7-(Butyl(ethyl)amino)-3-(2,4-dimethoxyphenyl)-5-methylthiazolo[4,5-d]pyrimidine-2(3H)-thione], the pKi is 6.77.

For the compound `CCCN(CCC)c1nc(C)nc2c1sc(=O)n2-c1ccc(OC)cc1OC` [8c, 3-(2,4-Dimethoxyphenyl)-7-(dipropylamino)-5-methylthiazolo[4,5-d]pyrimidin-2(3H)-one], the negative logarithm of the Ki (pKi) was 7.49.

In the case of `CCCCN(CC)c1nc(C)nc2c1c(C)c(C)n2-c1c(C)cc(C)cc1C` [antalarmin, reference compound], the negative-log Ki (pKi) is 7.79.

Still in this assay, the particulars now being: read-out: Inhibition of [125I]-Tyr0-sauvagine specific binding.
For `CCCNc1nc(C)nc2c1sc(=S)n2-c1ccc(OC)cc1OC` [5a, 3-(2,4-Dimethoxyphenyl)-5-methyl-7-(propylamino)thiazolo[4,5-d]pyrimidine-2(3H)-thione], the inhibition at 0.5 µM was below 50%.

On to `CCN(CC)c1nc(C)nc2c1sc(=S)n2-c1ccc(OC)cc1OC` [5b, 7-(Diethylamino)-3-(2,4-dimethoxyphenyl)-5-methylthiazolo[4,5-d]pyrimidine-2(3H)-thione], for which the inhibition at 0.5 µM was above 50%.

As for `CCCCN(CCCC)c1nc(C)nc2c1sc(=S)n2-c1ccc(OC)cc1OC` [5d, 7-(Dibutylamino)-3-(2,4-dimethoxyphenyl)-5-methylthiazolo[4,5-d]pyrimidine-2(3H)-thione], the inhibition at 0.5 µM was above 50%.

As for `CCCCN(CC)c1nc(C)nc2c1sc(=S)n2-c1ccc(OC)cc1OC` [5e, 7-(Butyl(ethyl)amino)-3-(2,4-dimethoxyphenyl)-5-methylthiazolo[4,5-d]pyrimidine-2(3H)-thione], the inhibition at 0.5 µM was above 50%.

Consider `CCCNc1nc(C)nc2c1sc(=O)n2-c1ccc(OC)cc1OC` [8a, 3-(2,4-Dimethoxyphenyl)-5-methyl-7-(propylamino)thiazolo[4,5-d]pyrimidin-2(3H)-one], for which the inhibition at 0.5 µM is below 50%.

As to `CCN(CC)c1nc(C)nc2c1sc(=O)n2-c1ccc(OC)cc1OC` [8b, 7-(Diethylamino)-3-(2,4-dimethoxyphenyl)-5-methylthiazolo[4,5-d]pyrimidin-2(3H)-one], the inhibition at 0.5 µM is below 50%.

With `CCCN(CCC)c1nc(C)nc2c1sc(=O)n2-c1ccc(OC)cc1OC` [8c, 3-(2,4-Dimethoxyphenyl)-7-(dipropylamino)-5-methylthiazolo[4,5-d]pyrimidin-2(3H)-one], the inhibition at 0.5 µM is above 50%.

For the compound `CCCCN(CCCC)c1nc(C)nc2c1sc(=O)n2-c1ccc(OC)cc1OC` [8d, 7-(Dibutylamino)-3-(2,4-dimethoxyphenyl)-5-methylthiazolo[4,5-d]pyrimidin-2(3H)-one], the inhibition at 0.5 µM is below 50%.

The same assay, now with this note: relative to antalarmin.
`CCN(CC)c1nc(C)nc2c1sc(=S)n2-c1ccc(OC)cc1OC` [5b, 7-(Diethylamino)-3-(2,4-dimethoxyphenyl)-5-methylthiazolo[4,5-d]pyrimidine-2(3H)-thione]: the “Binding affinity fold lower than that of antalarmin” value is listed as 5 fold.

For `CCCCN(CCCC)c1nc(C)nc2c1sc(=S)n2-c1ccc(OC)cc1OC` [5d, 7-(Dibutylamino)-3-(2,4-dimethoxyphenyl)-5-methylthiazolo[4,5-d]pyrimidine-2(3H)-thione], the “Binding affinity fold lower than that of antalarmin” value came to 6 fold.

On to `CCCCN(CC)c1nc(C)nc2c1sc(=S)n2-c1ccc(OC)cc1OC` [5e, 7-(Butyl(ethyl)amino)-3-(2,4-dimethoxyphenyl)-5-methylthiazolo[4,5-d]pyrimidine-2(3H)-thione], for which the “Binding affinity fold lower than that of antalarmin” value turned out to be 10 fold.

In the case of `CCCN(CCC)c1nc(C)nc2c1sc(=O)n2-c1ccc(OC)cc1OC` [8c, 3-(2,4-Dimethoxyphenyl)-7-(dipropylamino)-5-methylthiazolo[4,5-d]pyrimidin-2(3H)-one], the “Binding affinity fold lower than that of antalarmin” value stood at 2 fold.

The next assay concerns the target T1, human CRFR1.
Settings: not given
The source holds these as a separate data set.
`CCCN(CCC)c1nc(C)nc2c1sc(=O)n2-c1ccc(OC)cc1OC` [8c, 3-(2,4-Dimethoxyphenyl)-7-(dipropylamino)-5-methylthiazolo[4,5-d]pyrimidin-2(3H)-one]: the negative logarithm of the IC50 (pIC50) was 5.67.

As to `CCCCN(CC)c1nc(C)nc2c1c(C)c(C)n2-c1c(C)cc(C)cc1C` [antalarmin, reference compound], the pIC50 was 7.59.

Still in this assay, the particulars now being: relative to antalarmin.
In the case of `CCCN(CCC)c1nc(C)nc2c1sc(=O)n2-c1ccc(OC)cc1OC` [8c, 3-(2,4-Dimethoxyphenyl)-7-(dipropylamino)-5-methylthiazolo[4,5-d]pyrimidin-2(3H)-one], the “Times less potent than antalarmin to inhibit CRF-stimulated cAMP accumulation” value was determined as 100 times.

In general, pKi refers to the Ki on a negative log10 scale, so that one unit is a factor of ten. A higher pKi goes with a low Ki. For orientation: inhibition means the percentage by which the read-out fell short of the control. As usually defined, the pIC50 is the negative decadic logarithm of the IC50, by convention in mol/L. Low values mean a high IC50, high ones a low IC50.

The record behind these values is paper PMC8387444 (Bioorganic chemistry, 2021).
